Test results reported in US20240384350A1, “METHODS OF TREATING CANCER WITH KINASE INHIBITORS” (BOARD OF REGENTS, THE UNIVERSITY OF TEXAS SYSTEM, priority 2021, published 2024).

How the values were obtained:
Assay in all cases: Ba/F3 drug screening, Cell Titer Glo, IC50 Mut/WT
Format in all cases: cell-based
[1] = biological target: T1, EGFR L858R T790M V843I (Homo sapiens, UniProt P00533, L858R/T790M/V843I); conditions: T790M-like-3S, 72 hours
T1 construct: expressed in transfected cells; host or cells: Ba/F3
Experimental: Data represent the ratio of the IC50 value for a given TKI for cells with a T790M-like-3S EGFR mutation to the IC50 value for cells with wildtype EGFR.
(§1) Ba/F3 cell generation, drug screening, and IC50 approximations. Ba/F3 cells were obtained as a gift from Dr. Gordon Mills (MD Anderson Cancer Center), and maintained in RPMI (Sigma) containing 10% FBS, 1% penicillin/streptomycin, and 10 ng/ml recombinant mIL-3 (R&D Biosystems). To establish stable Ba/F3 cell lines, Ba/F3 cells were transduced with retroviruses containing mutant EGFR plasmids for 12-24 hours.
(§2) After 48-72 hours of transduction, 2 μg/ml puromycin (Invitrogen) was added to Ba/F3 cell lines in complete RPMI. To select for EGFR positive cell lines, cells were stained with PE-EGFR (Biolegend) and sorted by FACS. After sorting, EGFR positive cells were maintained in RPMI containing 10% FBS, 1% penicillin/streptomycin, and 1 ng/ml EGF to support cell viability. Drug screening was performed as previously described^41,42. Shortly, cells were plated in 384-well plates (Greiner Bio-One) at 2000-3000 cells per well in technical triplicate. Seven different concentrations of TKIs or DMSO vehicle were added to reach a final volume of 40 μL per well. After 72 hours, 11 μL of Cell Titer Glo (Promega) was added to each well. Plates were incubated for a minimum of 10 minutes, and bioluminescence was determined using a FLUOstar OPTIMA plate reader (BMG LABTECH). Raw bioluminescence values were normalized to DMSO control treated cells, and values were plotted in GraphPad Prism. […] Drug screens were performed in technical triplicate on each plate and either duplicate or triplicate biological replicates.

[2] = biological target: T2, EGFR L718Q (Homo sapiens, UniProt P00533, L718Q); conditions: Ba/F3 cells, EGFR L718Q (PACC), Mut/WT
T2 construct: expressed in transfected cells; host or cells: Ba/F3
Experimental: (§3) Data represent the ratio of the IC50 value for a given TKI for cells with a PACC EGFR mutation to the IC50 value for cells with wildtype EGFR.
as §1, §2

[3] = biological target: T3, EGFR S768dupSVD V769M (Homo sapiens, UniProt P00533, INS768MDS/V769M); conditions: Ex20, 72 hours
T3 construct: expressed in transfected cells; host or cells: Ba/F3 cells, retroviral pBabe-Puro vector (vector made by GeneScript from EGFR S768dupSVD, c.2305G > A)

[4] = biological target: T4, EGFR L858R/L792H (Homo sapiens, UniProt P00533, L792H/L858R); conditions: Ba/F3 cells, EGFR L858R/L792H (PACC), Mut/WT
T4 construct: expressed in transfected cells; host or cells: Ba/F3
Experimental: as §3, §1, §2

[5] = biological target: T5, EGFR Ex19del (Homo sapiens, UniProt P00533, DEL746-750); conditions: Classical-Like, 72 hours
T5 construct: expressed in transfected cells; host or cells: Ba/F3 cells, retroviral pBabe-Puro vector

[6] = biological target: T6, EGFR E709K (Homo sapiens, UniProt P00533, E709K); conditions: Ba/F3 cells, EGFR E709K (PACC), Mut/WT
T6 construct: expressed in transfected cells; host or cells: Ba/F3

[7] = biological target: T7, EGFR L858R T790M L718V (Homo sapiens, UniProt P00533, L718V/L858R/T790M); conditions: T790M-like-3R, 72 hours
T7 construct: expressed in transfected cells; host or cells: Ba/F3

[8] = biological target: T8, EGFR K754E (Homo sapiens, UniProt P00533, K754E); conditions: Classical-Like, 72 hours
T8 construct: expressed in transfected cells; host or cells: Ba/F3 cells, retroviral pBabe-Puro vector

[9] = biological target: T9, EGFR L858R G724S (Homo sapiens, UniProt P00533, G724S/L858R); conditions: Ba/F3 cells, EGFR L858R G724S (PACC), Mut/WT
T9 construct: expressed in transfected cells; host or cells: Ba/F3 (retroviral transduction, pBabe-Puro based vectors)

[10] = biological target: T10, EGFR G719A (Homo sapiens, UniProt P00533, G719A); conditions: Ba/F3 cells, EGFR G719A (PACC), Mut/WT
T10 construct: expressed in transfected cells; host or cells: Ba/F3

[11] = biological target: T11, EGFR E709_T710del insD (Homo sapiens, UniProt P00533, DEL709-709/T710D); conditions: Ba/F3 cells, EGFR E709_T710del insD (PACC), Mut/WT
T11 construct: expressed in transfected cells; host or cells: Ba/F3

[12] = biological target: T12, EGFR G724S T790M (Homo sapiens, UniProt P00533, G724S/T790M); conditions: T790M-like-3R, 72 hours
T12 construct: expressed in transfected cells; host or cells: Ba/F3

[13] = biological target: T13, EGFR Ex19del/L792H (Homo sapiens, UniProt P00533, DEL746-750/L792H); conditions: Ba/F3 cells, EGFR Ex19del/L792H (PACC), Mut/WT
T13 construct: expressed in transfected cells; host or cells: Ba/F3

[14] = biological target: T14, EGFR G719S (Homo sapiens, UniProt P00533, G719S); conditions: Ba/F3 cells, EGFR G719S (PACC), Mut/WT
T14 construct: expressed in transfected cells; host or cells: Ba/F3
Experimental: as §3, §1, §2

[15] = biological target: T15, EGFR E709K G719S (Homo sapiens, UniProt P00533, E709K/G719S); conditions: Ba/F3 cells, EGFR E709K G719S (PACC), Mut/WT
T15 construct: expressed in transfected cells; host or cells: Ba/F3
Experimental: as §3, §1, §2

[16] = biological target: T16, EGFR G719A L861Q (Homo sapiens, UniProt P00533, G719A/L861Q); conditions: Ba/F3 cells, EGFR G719A L861Q (PACC), Mut/WT
T16 construct: expressed in transfected cells; host or cells: Ba/F3
Experimental: as §3, §1, §2

[17] = biological target: T17, EGFR L858R/C797S (Homo sapiens, UniProt P00533, C797S/L858R); conditions: Ba/F3 cells, EGFR L858R/C797S (PACC), Mut/WT
T17 construct: expressed in transfected cells; host or cells: Ba/F3
Experimental: as §3, §1, §2

[18] = biological target: T18, EGFR G719A/R776C (Homo sapiens, UniProt P00533, G719A/R776C); conditions: Ba/F3 cells, EGFR G719A/R776C (PACC), Mut/WT
T18 construct: expressed in transfected cells; host or cells: Ba/F3
Experimental: as §3, §1, §2

[19] = biological target: T19, EGFR A763insLQEA (Homo sapiens, UniProt P00533, INS763LQEA); conditions: Classical-Like, 72 hours
T19 construct: expressed in transfected cells; host or cells: Ba/F3 cells, retroviral pBabe-Puro vector
Experimental: (§4) Data represent the ratio of the IC50 value for a given TKI for cells with a classical-like EGFR mutation to the IC50 value for cells with wildtype EGFR.
as §1
(§5) After 48-72 hours of transduction, 2 μg/ml puromycin (Invitrogen) was added to Ba/F3 cell lines in complete RPMI. To select for EGFR positive cell lines, cells were stained with PE-EGFR (Biolegend) and sorted by FACS. After sorting, EGFR positive cells were maintained in RPMI containing 10% FBS, 1% penicillin/streptomycin, and 1 ng/ml EGF to support cell viability. […] Shortly, cells were plated in 384-well plates (Greiner Bio-One) at 2000-3000 cells per well in technical triplicate. Seven different concentrations of TKIs or DMSO vehicle were added to reach a final volume of 40 μL per well. After 72 hours, 11 μL of Cell Titer Glo (Promega) was added to each well. Plates were incubated for a minimum of 10 minutes, and bioluminescence was determined using a FLUOstar OPTIMA plate reader (BMG LABTECH). Raw bioluminescence values were normalized to DMSO control treated cells, and values were plotted in GraphPad Prism. […] Drug screens were performed in technical triplicate on each plate and either duplicate or triplicate biological replicates.

[20] = biological target: T20, EGFR L833V (Homo sapiens, UniProt P00533, L833V); conditions: Classical-Like, 72 hours
T20 construct: expressed in transfected cells; host or cells: Ba/F3 cells, retroviral pBabe-Puro vector

[21] = biological target: T21, EGFR D761N (Homo sapiens, UniProt P00533, D761N); conditions: Classical-Like, 72 hours
T21 construct: expressed in transfected cells; host or cells: Ba/F3 cells, retroviral pBabe-Puro vector
Experimental: as §4, §1, §5

[22] = biological target: T22, EGFR K757R (Homo sapiens, UniProt P00533, K757R); conditions: Ba/F3 cells, EGFR K757R (PACC), Mut/WT
T22 construct: expressed in transfected cells; host or cells: Ba/F3
Experimental: as §3, §1
After 48-72 hours of transduction, 2 μg/ml puromycin (Invitrogen) was added to Ba/F3 cell lines in complete RPMI. To select for EGFR positive cell lines, cells were stained with PE-EGFR (Biolegend) and sorted by FACS. After sorting, EGFR positive cells were maintained in RPMI containing 10% FBS, 1% penicillin/streptomycin, and 1 ng/ml EGF to support cell viability. Drug screening was performed as previously described^41,42. Shortly, cells were plated in 384-well plates (Greiner Bio-One) at 2000-3000 cells per well in technical triplicate. Seven different concentrations of TKIs or DMSO vehicle were added to reach a final volume of 40 μL per well. After 72 hours, 11 μL of Cell Titer Glo (Promega) was added to each well. Plates were incubated for a minimum of 10 minutes, and bioluminescence was determined using a FLUOstar OPTIMA plate reader (BMG LABTECH). Raw bioluminescence values were normalized to DMSO control treated cells, and values were plotted in GraphPad Prism. […] Drug screens were performed in technical triplicate on each plate and either duplicate or triplicate biological replicates. […] Statistical differences between groups were determined by ANOVA as described in the figure legends.

[23] = biological target: T23, EGFR L718V (Homo sapiens, UniProt P00533, L718V); conditions: Ba/F3 cells, EGFR L718V (PACC), Mut/WT
T23 construct: expressed in transfected cells; host or cells: Ba/F3

ratio of IC50 for cells with mutant EGFR to IC50 for cells with wildtype EGFR (Mut/WT) [1]: 0.000771 | ratio of the IC50 value for cells with a PACC EGFR mutation to the IC50 value for cells with wildtype EGFR [2]: 3.977 | ratio of IC50 for cells with mutant EGFR to IC50 for cells with wildtype EGFR (Mut/WT) [3]: 0.5379 | ratio of the IC50 value for cells with a PACC EGFR mutation to the IC50 value for cells with wildtype EGFR [4]: 0.1405 | ratio of IC50 for cells with mutant EGFR to IC50 for cells with wildtype EGFR (Mut/WT) [5]: 0.0008432 | ratio of the IC50 value for cells with a PACC EGFR mutation to the IC50 value for cells with wildtype EGFR [6]: 0.05562 | ratio of IC50 for cells with mutant EGFR to IC50 for cells with wildtype EGFR (Mut/WT) [7]: 0.8754 | ratio of IC50 for cells with mutant EGFR to IC50 for cells with wildtype EGFR (Mut/WT) [8]: 0.008838 | ratio of the IC50 value for cells with a PACC EGFR mutation to the IC50 value for cells with wildtype EGFR [9]: 0.02052 | ratio of the IC50 value for cells with a PACC EGFR mutation to the IC50 value for cells with wildtype EGFR [10]: 0.141 | ratio of the IC50 value for cells with a PACC EGFR mutation to the IC50 value for cells with wildtype EGFR [11]: 0.2299 | ratio of IC50 for cells with mutant EGFR to IC50 for cells with wildtype EGFR (Mut/WT) [12]: 0.01985 | ratio of the IC50 value for cells with a PACC EGFR mutation to the IC50 value for cells with wildtype EGFR [13]: 0.01923 | ratio of the IC50 value for cells with a PACC EGFR mutation to the IC50 value for cells with wildtype EGFR [14]: 0.214 | ratio of the IC50 value for cells with a PACC EGFR mutation to the IC50 value for cells with wildtype EGFR [15]: 0.3569 | ratio of the IC50 value for cells with a PACC EGFR mutation to the IC50 value for cells with wildtype EGFR [16]: 0.07388 | ratio of the IC50 value for cells with a PACC EGFR mutation to the IC50 value for cells with wildtype EGFR [17]: 2.242 | ratio of the IC50 value for cells with a PACC EGFR mutation to the IC50 value for cells with wildtype EGFR [18]: 0.1805 | ratio of IC50 for cells with mutant EGFR to IC50 for cells with wildtype EGFR (Mut/WT) [19]: 0.07483 | ratio of IC50 for cells with mutant EGFR to IC50 for cells with wildtype EGFR (Mut/WT) [20]: 0.03803 | ratio of IC50 for cells with mutant EGFR to IC50 for cells with wildtype EGFR (Mut/WT) [21]: 0.1654 | ratio of the IC50 value for cells with a PACC EGFR mutation to the IC50 value for cells with wildtype EGFR [22]: 0.1439 | ratio of the IC50 value for cells with a PACC EGFR mutation to the IC50 value for cells with wildtype EGFR [23]: 0.139
SMILES: C=CC(=O)Nc1cccc(Oc2nc(Nc3ccc(N4CCN(C)CC4)cc3)nc3ccsc23)c1 [Olmutinib]
